Measured values reported in patent US11512089B2, “Substituted [1,2,4]triazolo[3,4-a]phthalazines as modulators of GABAA receptor activity” (SHANGHAI SIMR BIOTECHNOLOGY CO., LTD, priority 2018, dated 2022).
In brackets after ≈: the same amount, converted by molar mass.

Legend:
[1] = Thermodynamic solubility in 50 mM phosphate buffer pH 7.4; assay type: physicochemical; conditions: aqueous buffer, thermodynamic from solid, 50 mM phosphate buffer pH 7.4, room temperature
Method: (§1) 50 mM phosphate buffer pH=7.4: 0.39 g of NaH2PO4.2H2O, and 1.4025 g of Na2HPO4 were weighted and placed in an erlenmeyer flask, 240 mL of water was added. The solid was dissolved and mixed thoroughly, the pH value was adjusted to 7.4 with 10M NaOH solution, and the resulting solution was transferred to a 250 mL volumetric flask, followed by adding water to the mark.
(§2) Waters e2695 HPLC high performance liquid chromatography, Mettler XSE105 analytical balance.
(§3) Firstly, a 10 mM stock solution with DMSO as the solvent was prepared, and was diluted with a diluent (ACN: PB buffer 50:50) into 1 μM-200 μM as standard solution.
Thermodynamic solubility. About 1 mg of the sample was weighted, 1.5 mL of 50 mM phosphate buffer (pH 7.4) was added thereto, and the mixture was shaken at room temperature for 24 hours to ensure that the solution reached a state of saturation. The solution was then filtered, and the filtrate was tested with high-performance liquid chromatography (UV).

[2] = Kinetic solubility in 50 mM phosphate buffer pH 7.4; assay type: physicochemical; conditions: aqueous buffer, kinetic from dmso stock, 50 mM phosphate buffer pH 7.4, 2% DMSO, room temperature
Method: as §1, §2, §3
Kinetic solubility. 30 μL of the stock solution was placed in a 2 mL centrifuge tube, 1470 μL of 50 mM phosphate buffer (pH 7.4) (containing DMSO at a final concentration of 2%) was added. The mixture was shaken at room temperature (1000 rpm/min) for 24 hours, and then filtered. The filtrate was tested by high performance liquid chromatography (UV).

[3] = biological target: T1, α5-GABAA receptor (Homo sapiens, UniProt P18507+P31644); experiment: Whole cell patch clamp, inverse agonism efficacy on GABA-induced current in HEK-293 cells expressing α5-GABAA receptor; assay type: cell-based; conditions: HEK293; compound 100 nM, GABA 0.05 μM; ratio to reference compound Example 7 in CN106854207A in the same batch
T1 construct: expressed in transfected cells; host or cells: HEK-293 (monoclonal, stably transfected)
T1 sequence (P31644 32-462): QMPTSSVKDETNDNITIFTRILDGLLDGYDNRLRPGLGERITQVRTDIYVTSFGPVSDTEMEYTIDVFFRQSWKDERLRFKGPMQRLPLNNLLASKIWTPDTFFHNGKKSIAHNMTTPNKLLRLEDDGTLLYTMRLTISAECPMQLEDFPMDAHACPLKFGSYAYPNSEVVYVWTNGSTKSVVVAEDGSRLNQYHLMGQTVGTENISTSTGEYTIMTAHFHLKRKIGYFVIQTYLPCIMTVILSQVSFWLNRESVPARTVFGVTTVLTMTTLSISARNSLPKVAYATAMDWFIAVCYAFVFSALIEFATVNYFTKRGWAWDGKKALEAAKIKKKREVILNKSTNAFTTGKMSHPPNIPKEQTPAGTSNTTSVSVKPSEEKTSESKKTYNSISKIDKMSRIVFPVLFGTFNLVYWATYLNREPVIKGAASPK
T1 sequence (P28472 26-473 partner): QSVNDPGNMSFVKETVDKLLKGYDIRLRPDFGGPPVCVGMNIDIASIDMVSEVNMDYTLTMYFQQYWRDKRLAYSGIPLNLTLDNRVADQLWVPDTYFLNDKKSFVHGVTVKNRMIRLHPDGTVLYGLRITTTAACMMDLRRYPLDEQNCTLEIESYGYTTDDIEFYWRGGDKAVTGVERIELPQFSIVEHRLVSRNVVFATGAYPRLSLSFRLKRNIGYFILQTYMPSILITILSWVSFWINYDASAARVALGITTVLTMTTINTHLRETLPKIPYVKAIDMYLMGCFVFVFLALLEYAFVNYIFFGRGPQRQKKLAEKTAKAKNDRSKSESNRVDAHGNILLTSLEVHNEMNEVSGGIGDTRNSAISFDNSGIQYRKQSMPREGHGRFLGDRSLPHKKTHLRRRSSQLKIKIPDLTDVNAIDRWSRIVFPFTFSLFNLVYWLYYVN
T1 sequence (P18507 40-467 isoform P18507-1 limits assumed): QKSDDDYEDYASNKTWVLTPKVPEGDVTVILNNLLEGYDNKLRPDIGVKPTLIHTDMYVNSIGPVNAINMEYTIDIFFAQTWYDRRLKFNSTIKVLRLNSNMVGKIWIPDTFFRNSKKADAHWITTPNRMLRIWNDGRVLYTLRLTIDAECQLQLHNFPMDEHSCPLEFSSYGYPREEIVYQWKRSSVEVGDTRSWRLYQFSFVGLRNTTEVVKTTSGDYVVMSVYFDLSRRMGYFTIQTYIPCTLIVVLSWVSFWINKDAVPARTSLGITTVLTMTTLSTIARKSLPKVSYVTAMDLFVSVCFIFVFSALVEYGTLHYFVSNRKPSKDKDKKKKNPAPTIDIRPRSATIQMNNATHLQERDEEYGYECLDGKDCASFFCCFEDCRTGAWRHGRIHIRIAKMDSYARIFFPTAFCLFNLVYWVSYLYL
Method: The inventors used electrophysiological methods to determine the inverse agonist efficacy of the substances to be tested. The detailed procedures are as follows:
(1) Different subunits of GABAA receptors were expressed in human embryonic kidney cells 293 (HEK293). The cells were cultured in a culture medium and used as a cell model for screening potential analgesics. The α, β and γ subunits are necessary to form complete functional GABAA receptors. In this example, the inventors have established the following cell model: (a) α5 subunit (protein sequence is GenBank accession number: NM_000810.3), (33 subunit (protein sequence is GenBank accession number: NM_000814.5) and γ2 subunit (protein sequence is GenBank accession number: NM_000816.3) were expressed in HEK-293 cell line at the same time, followed by screening the monoclonal cell line. This cell line contained α5-GABAA receptor and had complete GABAA receptor function.
(2) The monoclonal stably transfected HEK-293 cells expressing α5-GABAA receptor were cultured in 10 cm culture dishes. The cells were passaged after reaching 80-90% confluence. During passaging, the culture medium was removed and discarded, 3 mL of DPBS (phosphate buffered saline, Gibco™) was added to the dishes, the dishes were shaken slightly, and DPBS was removed and discarded. 1 mL of trypsin (TrypLE Express, Gibco™) was added and the cells were digested at 37° C. for 1-2 minutes. Then 3 mL of complete medium (DMEM+10% FBS (Gibco™)) was added and the cells at the bottom of the culture dishes were dispersed. The cell suspension were transferred to a 15 mL centrifugal tube (Corning™) and then centrifuged at 200 g for 3 minutes. The supernatant was discarded, 4 mL of complete medium was added, and the cells were resuspended by gently blowing. The cell suspension was diluted by 1:5 or 1:10 for subculturing. The cell suspension was diluted by 1:12 for electrophysiology experiment, and added to a 24 well plate (Corning™) with a glass slide pre-treated with poly-D-lysine placed thereon; the experiment was initiated after the cells were adhered to the slide. The cells for electrophysiology experiment were maintained in culture for no more than 48 hours before use.
(3) Compound concentration: for screening, all compounds were diluted to a final concentration of 100 nM and the concentration of GABA was 0.05 μM. The compounds were at the concentration of 0.3 nM, 3 nM, 10 nM, 30 nM, 100 nM and 300 nM in dose-inverse agonism efficacy (%) experiment. The whole cell patch clamp technique was used in electrophysiology experiments, which can refer to the literature (I. Lecker, Y. Yin, D. S. Wang and B. A. Orser, (2013) Potentiation of GABAA receptor activity by volatile anaesthetics is reduced by α5-GABAA receptor-preferring inverse agonists, British Journal of Anaesthesia 110 (S1): i73-i81). The extracellular solution (ECS) contained: 150 mM NaCl, 5 mM KCl, 2.5 mM CaCl2, 1 mM MgCl2, 10 mM HEPES and 10 mM glucose (pH 7.4); Patch electrodes were filled with an intracellular solution containing: 140 mM CsCl, 11 mM EGTA, 10 mM HEPES, 2 mM CaCl2, 1 mM MgCl2, 4 mM MgATP, 2 mM TEA (pH 7.3). The currents were recorded by an EPC-10 amplifier and the PatchMaster software (HEKA). Patch electrodes with a resistance of 4-6 MΩ were pulled from borosilicate glass. The ALA-VC3-8PP™ system was used for extracellular administration. Separate cells that grew independently was selected for recording. During recording, the membrane voltage was clamped at −60 mV. During experiment, the cells were firstly perfused with ECS for 20 seconds. When the baseline reached to a stable state, the cells were then perfused with GABA solution. Then the current induced by GABA could be detected. After about 20 to 40 seconds, the current was stable. ECS was switched to compounds solution and the effects of the compounds were detected. At last, the perfusion solution was switched to ECS. […]

| solubility thermodynamic at 24 h [1] | solubility kinetic at 24 h [2] | Emax at 0.1 µM [3] | SMILES |
| --- | --- | --- | --- |
| < 0.5 µg/mL | 0.62 µg/mL (≈ 1.44 µM) |  | CCNC(=O)c1ccc(COc2nn3c(-c4cc(C)on4)nnc3c3ccccc23)nc1 [drawing 164, reference compound] |
| 0.98 µg/mL (≈ 1.94 µM) | 0.97 µg/mL (≈ 1.92 µM) |  | Cc1cc(-c2nnc3c4ccccc4c(OCc4ccc(C(=O)N5CCC(F)(F)CC5)cn4)nn23)no1 [reference compound] |
|  | 10.1 µg/mL (≈ 19.7 µM) | 118% | COCc1cc(-c2nnc3c4ccccc4c(OCc4ccc(C(=O)NCC5(C)COC5)cn4)nn23)no1 [Compound 20, N-((3-methyl(oxetanyl)-methyl)-6-{3-[5(methoxymethyl)isoxazol-3-yl]-[1,2,4]triazole[3,4-a]phthalazin-6-oxy)methylene}nicotinamide] |
|  | 18.9 µg/mL (≈ 37.6 µM) | 103% | COCc1cc(-c2nnc3c4ccccc4c(OCc4ccc(C(=O)NC(C)COC)cn4)nn23)no1 (stereo not shown) [Compound 10, N-(2-methoxy-1-methyl-ethyl)-6-[3-(5-methoxymethyl-isoxazol-3-yl)-[1,2,4]triazolo[3,4-a]phthalazin-6-yloxymethyl]-nicotinamide] |
|  | 9.11 µg/mL (≈ 18.8 µM) | 73.7% | COCc1cc(-c2nnc3c4ccccc4c(OCc4ccc(C(=O)NC5CCC5)cn4)nn23)no1 [Compound 23] |
|  | 3.68 µg/mL (≈ 7.6 µM) | 133% | COCc1cc(-c2nnc3c4ccccc4c(OCc4ccc(C(=O)NCCC#N)cn4)nn23)no1 [Compound 28, N-(2-cyano-ethyl)-6-[3-(5-methoxymethyl-isoxazol-3-yl)-[1,2,4]triazolo[3,4-a]phthalazin-6-yloxymethyl]-nicotinamide] |
| < 0.46 µg/mL | < 0.46 µg/mL |  | Cc1cc(-c2nnc3c4ccccc4c(OCc4ccc(C(=O)NCC(F)F)cn4)nn23)no1 [reference compound] |
| 1.5 µg/mL (≈ 3.26 µM) | 0.92 µg/mL (≈ 2 µM) |  | COCCNC(=O)c1ccc(COc2nn3c(-c4cc(C)on4)nnc3c3ccccc23)nc1 [reference compound] |
| 0.82 µg/mL (≈ 1.86 µM) | 2.16 µg/mL (≈ 4.89 µM) |  | Cc1cc(-c2nnc3c4ccccc4c(OCc4ccc(C(=O)NC5CC5)cn4)nn23)no1 [reference compound] |
|  | 10.8 µg/mL (≈ 21.4 µM) | 115% | COCc1cc(-c2nnc3c4ccccc4c(OCc4ccc(C(=O)NCC5COC5)cn4)nn23)no1 [Compound 18] |
|  | 4.19 µg/mL (≈ 8.42 µM) | 95.1% | COCc1cc(-c2nnc3c4ccccc4c(OCc4ccc(C(=O)NC56CC(C5)C6)cn4)nn23)no1 [Compound 31] |
| 0.74 µg/mL (≈ 1.49 µM) | 1.39 µg/mL (≈ 2.81 µM) |  | COCc1cc(-c2nnc3c4ccccc4c(OCc4ccc(C(=O)NCC(F)F)cn4)nn23)no1 [Compound 24] |
|  | 13.6 µg/mL (≈ 26.4 µM) | 74.9% | COCc1cc(-c2nnc3c4ccccc4c(OCc4ccc(C(=O)NC[C@@H]5CCCO5)cn4)nn23)no1 [Compound 06, (S)-6-[3-(5-methoxymethyl-isoxazol-3-yl)-[1,2,4]triazolo[3,4-a]phthalazin-6-yloxymethyl]-N-(tetrahydro-furan-2-ylmethyl)-nicotinamide] |
|  | 31.9 µg/mL (≈ 63.9 µM) | 78.3% | COCc1cc(-c2nnc3c4ccccc4c(OCc4ccc(C(=O)N(C)CC5CC5)cn4)nn23)no1 [Compound 40] |
|  | 23.2 µg/mL (≈ 47.4 µM) | 108% | COCCNC(=O)c1ccc(COc2nn3c(-c4cc(COC)on4)nnc3c3ccccc23)nc1 [Compound 07, N-(2-methoxy-ethyl)-6-[3-(5-methoxymethyl-isoxazol-3-yl)-[1,2,4]triazolo[3,4-a]phthalazin-6-yloxymethyl]-nicotinamide] |
|  | 25.6 µg/mL (≈ 50.7 µM) | 90% | COCc1cc(-c2nnc3c4ccccc4c(OCc4ccc(C(=O)N[C@@H](C)COC)cn4)nn23)no1 [Compound 05, (S)—N-(2-methoxy-1-methyl-ethyl)-6-[3-(5-methoxymethyl-isoxazol-3-yl)-[1,2,4]triazolo[3,4-a]phthalazin-6-yloxymethyl]-nicotinamide] |

Further lines, the compound ahead of its results:

| SMILES | solubility thermodynamic at 24 h [1] | solubility kinetic at 24 h [2] | Emax at 0.1 µM [3] |
| --- | --- | --- | --- |
| COCc1cc(-c2nnc3c4ccccc4c(OCc4ccc(C(=O)N5CCC(O)CC5)cn4)nn23)no1 [Compound 45] |  | 6.93 µg/mL (≈ 13.4 µM) | 88.4% |
| COCc1cc(-c2nnc3c4ccccc4c(OCc4ccc(C(=O)N5CC6(COC6)C5)cn4)nn23)no1 [Compound 39] |  | 48.5 µg/mL (≈ 94.3 µM) | 90.2% |
| COCc1cc(-c2nnc3c4ccccc4c(OCc4ccc(C(=O)NC5CN(C(C)=O)C5)cn4)nn23)no1 [Compound 32] |  | 29.7 µg/mL (≈ 56.3 µM) | 89.1% |
| COCc1cc(-c2nnc3c4ccccc4c(OCc4ccc(C(=O)N5CCCC5)cn4)nn23)no1 [Compound 48] |  | 31.7 µg/mL (≈ 65.3 µM) | 78.7% |
| COCc1cc(-c2nnc3c4ccccc4c(OCc4ccc(C(=O)N5CCC(F)(F)CC5)cn4)nn23)no1 [Compound 34] | 4.4 µg/mL (≈ 8.22 µM) | 4.6 µg/mL (≈ 8.59 µM) |  |
| COCc1cc(-c2nnc3c4ccccc4c(OCc4ccc(C(=O)N5CCOCC5C)cn4)nn23)no1 (stereo not shown) [Compound 47, (6-(((3-(5-(methoxymethyl)isoxazol-3-yl)-[1,2,4]triazolo[3,4-a]phthalazin-6-yl)oxy)methyl)pyridin-3-yl)(3-methylmorpholino)methanone] |  | 97.8 µg/mL (≈ 190 µM) | 72.5% |
| COCc1cc(-c2nnc3c4ccccc4c(OCc4ccc(C(=O)N5CCOC(C)C5)cn4)nn23)no1 (stereo not shown) [Compound 54] |  | 97.9 µg/mL (≈ 190 µM) | 77.5% |
| COCc1cc(-c2nnc3c4ccccc4c(OCc4ccc(C(=O)N5C[C@@H]6C[C@H]5CO6)cn4)nn23)no1 [Compound 43] |  | 100 µg/mL (≈ 195 µM) | 86.9% |
| COCc1cc(-c2nnc3c4ccccc4c(OCc4ccc(C(=O)N5CCC6(CC5)COC6)cn4)nn23)no1 [Compound 56, {6-[3-(5-methoxymethyl-isoxazol-3-yl)-[1,2,4]triazolo[3,4-a]phthalazin-6-yloxymethyl]-pyridin-3-yl}-(2-oxa-7-aza-spiro[3.5]non-7-yl)-methanone] |  | 12.5 µg/mL (≈ 23.1 µM) | 111% |
| COCc1cc(-c2nnc3c4ccccc4c(OCc4ccc(C(=O)NC(COC)COC)cn4)nn23)no1 [Compound 30] |  | 6.85 µg/mL (≈ 12.8 µM) | 85.2% |
